Test results from patent US10532084B2, “Chondrocyte extracellular matrix-derived peptide” (EYEBIO KOREA, priority 2016, dated 2020).
Entries after “also recorded” stand apart in the source; their conditions may differ.

How the values were obtained:
[1] = test system: CD31, FGF and VEGF; conditions: rabbit alkaline burn; 10 days treatment; immunostaining
Method: (§1) The rabbits were randomly divided into an alkaline burn group (n=5) and a peptide treated group (n=5). In the alkaline burn group, normal saline was administered 4 times daily and in the peptide-treated group, Hyp-[…] peptide of 10 mg/mL was administered 4 times daily, and the left eye was used as a control group.
(§2) Tissue sections were cut into 6 μm thickness and used for immunohistochemical analysis.
(§3) First, tissue sections were fixed with 3.5% paraformaldehyde and permeated with 0.1% Triton X-100, inactivated 2% bovine serum albumin (BSA; all from Sigma, St. Louis, Mo.) and incubated overnight at 4° C. with anti-CD31(1:1,000; Abcam Inc., Cambridge, Mass.), anti-bFGF(1:1,000; Bioss Inc., Woburn, Mass.), anti-IL-1β, anti-IL-6(1:1,000; Cloud-Clone Corp., Houston, Tex.), anti-MMP-9, anti-ICMA-1, anti-TNFα, anti-macrophage/mononucleus (1:1,000; Abnova Crop., Taipei, Taiwan) and anti-VEGF-A (Abbiotec, San Diego, Calif.) primary antibody.
(§4) Thereafter, the secondary antibody was incubated for 45 minutes in the section and the immunological response was visualized with diaminobenzidine (DAB) chromogen, and the section was contrast-stained with Mayer's hematoxylin (Sigma) for 30 seconds at room temperature.
(§5) The dyed sections were photographed by a virtual microscope (NanoZoomer 2.0 RS, Hamamatsu, Japan).

[2] = test system: macrophages, TNFα, ICAM-1, IL-1β, IL-6 and MMP-9; conditions: rabbit alkaline burn; 10 days treatment; immunostaining
Method: as §1, §2, §3, §4, §5

[3] = test system: choroidal neovascularization (CNV); assay: Laser-induced choroidal neovascularization (CNV), lesion size by retina-choroid flat-mount; format: in vivo, C57BL/6 mice; conditions: mouse, laser irradiation
Method: C57BL/6 mice were purchased from Orient Bio and the animal experiments was carried out in accordance with the guidelines approved by the University of Inje (No, 2013-053) and ARVO regarding animal use for eye and vision studies. 6-week-old C57BL/6 mice were treated with diode green laser (532 nm, 150 mW, 0.1 sec, […], photocoagulator) to damage the retinal optic nerve area. […] The above experiment for each experiment group was performed using both eyes of five mice each. […]
The mouse was anesthetized and injected with 25 mg/ml of FITC-dextran in […] of retro-orbital. After 30 minutes, the mouse was euthanized and the eyeball was extracted and fixed with 10% formalin and then, the cornea and lens were removed and flat mounted on the cover glass. The neovasculature stained with FITC-dextran was observed by fluorescence microscopy (Leica) and the lesion size was measured by Image J program. […]

[4] = test system: VEGF, ICAM and MCP-1; assay: Quantitative real-time RT-PCR of retina and choroid, laser CNV model; format: in vivo, C57BL/6 mice; conditions: mouse, 14 days after laser, 5 μg
Method: In order to confirm the inhibitory effect of hydroxy proline-GQDGLAGPK on neovascularization-related gene expression, RNA was extracted using RNeasy Mini kit (Qiagen) in mixture of retina and choroid of extracted mice eyeballs, and cDNA was synthesized by using oligo(dT) primer and reverse transcriptase. PCR products were amplified using the specific primer set (COSMOGENETECH, Korea) shown in Table 1 and SYBR Green PCR 2X PreMix (Enzynomics) and for the PCR conditions, the samples were incubated at 95° C. for 10 minutes, and 40 PCR cycles at 95° C. for 15 seconds, 60° C. for 30 seconds and 72° C. for 15 seconds, were performed. Relative quantification was calculated using 2-(DDCT) method [Livak and Schmittgen, 2001; DDCT=(CT, target-CT, actin) control group (CT, target-CT, actin) control group].
After 14 days of laser irradiation in mouse, RNA was extracted from retina and choroid to analyze the gene expression by real-time RT-PCR.

## hydroxy proline-GQDGLAGPK [Hyp-GQDGLAGPK]
[1]
  expression of CD31, FGF and VEGF in epithelium, subepithelium and matrix: significant decreases
[2]
  expression of MMP-9 in the cornea: inhibited
  expression of inflammatory factors TNFα, IL-1β, IL-6 and ICAM-1: decreased
  expression of macrophages in the cornea: effectively inhibited
[3]; 2 μg intraocular injection for 5 days, listed as CPII
  CNV lesions: reduced; also recorded: decreased
[3]; 5 μg intraocularly for 5 consecutive days, 14 days after laser, FITC-dextran flat-mount
  CNV lesion size vs control group: significantly decreased
[4]; laser-treated group increased about 10 times
  MCP-1 gene expression in retina and choroid: significantly decreased
[4]; laser-treated group increased about 55 times
  VEGF gene expression in retina and choroid: decreased to the level similar to that of the laser-untreated group
[4]; laser-treated group increased about 300 times
  ICAM gene expression in retina and choroid: significantly decreased
